Several values for one entry are separate records, joined by “and”; a condition that tells them apart may be missing. Equal values may be shown once. Read-outs that look alike come from different tables or passages of the source.
How the values were obtained:
[1] = Pharmacokinetic study in CD-1 mice (gavage, intravenous, intraperitoneal); type: in vivo; settings: 20 mg/kg; for Cmax / Tmax / half-life / AUC(0-inf) / AUC(0-t) / MRT inf: male, CD-1, mouse, plasma; for AUC(0-inf): read-out: AUC INF_obs; for MRT inf: read-out: MRT INF_obs
Procedure: Nine CD-1 mice, male, weighing 18-22 g, were randomly divided into 3 groups with 3 mice in each group. The test compounds were administered by gavage, intravenously and intraperitoneally according to the following schemes.
Before the test, they were fasted for 12 hours and were allowed to drink water freely, and were fed uniformly 2 h after administration.
There were 3 animals at each time point.
The solution for gavage administration was formulated with DMSO/0.5% HPMC (5/95, v/v) into the final concentration. Intravenous and intraperitoneal administration were formulated with DMSO/PEG300/EtOH/NaCl (5/40/5/50, v/v/v). Retention samples of the dosing solution (50 μL of the drug solution was taken and mixed well with 50 μL of DMSO before and after the administration) for testing.
The drug was administered according to the above dosage, the time of administration were recorded, and 20 μL of blood was collected from the mouse femoral plexus at the above set time point and placed in a heparinized test tube and centrifuged immediately at 11000 rpm for 5 min. 10 μL of plasma was immediately and accurately drawn into a centrifuge tube pre-filled with 100 μL of PK-IS solution (prepared with methanol:acetonitrile (1:1, v/v)), mixed well, and frozen to store at −20° C. for testing.

[2] = system: MERS-CoV pseudovirus; assay: microbe, parasite or virus in culture; type: cell-based; settings: Middle East respiratory syndrome-related coronavirus, Huh-7, read-out: MERS-CoV pseudovirus inhibitory activity IC50
[3] = i.p. (20 mg/Kg per Table 3), individual animal
[4] = ip, i.p. (20 mg/Kg per Table 3), Mean of 3 mice
[5] = ip, i.p. (20 mg/Kg per Table 3), Mean of 3 mice, read-out: AUC last (exposure for intraperitoneal injection)
[6] = ip, i.p. (20 mg/Kg per Table 3), individual animal
[7] = ip, i.p. (20 mg/Kg per Table 3), individual animal, read-out: AUC last
[8] = po, p.o. (gavage 20 mg/Kg per Table 3), Mean of 3 mice
[9] = po, p.o. (gavage 20 mg/Kg per Table 3), Mean of 3 mice, read-out: AUC last (oral exposure)
[10] = po, p.o. (gavage 20 mg/Kg per Table 3), individual animal
[11] = p.o. (gavage 20 mg/Kg per Table 3), individual animal

O=C(NCc1ccccc1)C(=O)[C@H](C[C@@H]1CCNC1=O)NC(=O)[C@H](CC1CCCCC1)NC(=O)c1cc2ccccc2o1 [Example A9, N—((S)-1-(((S)-4-(benzylamino)-3,4-dione-1-((S)-2-oxopyrrolidine-3-yl)but-2-yl)amino)-3-cyclohexyl-1-oxopropan-2-yl)-benzofuran-2-carboxamide]
AUC INF_obs [1, 3]: 6825 ng·h/mL and 10574 ng·h/mL
AUC last [1, 3]: 6786 ng·h/mL and 10138 ng·h/mL
C max [1, 3]: 2859 ng/mL and 2364 ng/mL
MRT INF_obs [1, 3]: 2.70 h and 3.19 h and 6.07 h
T1/2 [1, 3]: 3.67 h and 5.11 h
T max [1, 3]: 0.75 h
Cmax [1, 4]: 2910 ng/mL
Tmax [1, 4]: 0.42 h
half-life [1, 4]: 4.02 h
AUC(0-inf) [1, 4]: 8360 ng·h/mL
AUC(0-t) [1, 5]: 8190 ng·h/mL
MRT inf [1, 4]: 3.99 h
Cmax [1, 6]: 3520 ng/mL
half-life [1, 6]: 3.28 h
AUC(0-inf) [1, 6]: 7670 ng·h/mL
AUC(0-t) [1, 7]: 7650 ng·h/mL
Cmax [1, 8]: 498 ng/mL
Tmax [1, 8]: 0.25 h
half-life [1, 8]: 1.27 h
AUC(0-inf) [1, 8]: 589 ng·h/mL
AUC(0-t) [1, 9]: 584 ng·h/mL
MRT inf [1, 8]: 1.77 h
Tmax [1, 10]: 0.25 h
half-life [1, 10]: 1.13 h
MRT inf [1, 10]: 1.35 h
AUC INF_obs [1, 11]: 451 ng·h/mL and 1146 ng·h/mL and 171 ng·h/mL
AUC last [1, 11]: 447 ng·h/mL and 1143 ng·h/mL and 163 ng·h/mL
C max [1, 11]: 546 ng/mL and 864 ng/mL and 84 ng/mL
MRT INF_obs [1, 11]: 1.33 h and 2.63 h
T1/2 [1, 11]: 0.91 h and 1.77 h
IC50 [2]: 1 ± 0.7 nM

Cc1cnc(C(=O)N[C@@H](CC2CCCCC2)C(=O)N[C@@H](C[C@@H]2CCCNC2=O)C(=O)C(=O)NCc2ccccc2)o1 [Example A241]
AUC INF_obs [1, 3]: 3524 ng·h/mL and 4121 ng·h/mL
AUC last [1, 3]: 3514 ng·h/mL and 4100 ng·h/mL
C max [1, 3]: 4206 ng/mL and 4836 ng/mL
MRT INF_obs [1, 3]: 1.37 h and 1.50 h
T1/2 [1, 3]: 3.59 h and 4.72 h
T max [1, 3]: 0.05 h
Cmax [1, 4]: 4660 ng/mL
Tmax [1, 4]: 0.18 h
half-life [1, 4]: 4.36 h
AUC(0-inf) [1, 4]: 4180 ng·h/mL
AUC(0-t) [1, 5]: 4160 ng·h/mL
MRT inf [1, 4]: 1.44 h
Cmax [1, 6]: 4930 ng/mL
half-life [1, 6]: 4.78 h
AUC(0-inf) [1, 6]: 4900 ng·h/mL
AUC(0-t) [1, 7]: 4870 ng·h/mL
MRT inf [1, 6]: 1.44 h
Cmax [1, 8]: 767 ng/mL
Tmax [1, 8]: 0.25 h
half-life [1, 8]: 4.22 h
AUC(0-inf) [1, 8]: 665 ng·h/mL
AUC(0-t) [1, 9]: 663 ng·h/mL
MRT inf [1, 8]: 1.82 h
Cmax [1, 10]: 707 ng/mL
Tmax [1, 10]: 0.25 h
half-life [1, 10]: 3.84 h
MRT inf [1, 10]: 2.12 h
AUC INF_obs [1, 11]: 469 ng·h/mL and 947 ng·h/mL and 579 ng·h/mL
AUC last [1, 11]: 467 ng·h/mL and 945 ng·h/mL and 576 ng·h/mL
C max [1, 11]: 942 ng/mL and 651 ng/mL
MRT INF_obs [1, 11]: 1.68 h and 1.64 h
T1/2 [1, 11]: 3.85 h and 4.96 h
IC50 [2]: 2.5 ± 1.3 nM

O=C(NCc1ccccc1)C(=O)[C@H](C[C@@H]1CCNC1=O)NC(=O)[C@H](CC1CCCCC1)NC(=O)c1ccc2ccccc2n1 [Example A42, N—((S)-1-(((S)-4-(benzylamino)-3,4-dione-1-((S)-2-oxopyrrolidine-3-yl)but-2-yl)amino)-3-cyclohexyl-1-oxopropan-2-yl)-quinoline-2-carboxamide]
AUC INF_obs [1, 3]: 10647 ng·h/mL and 11768 ng·h/mL
AUC last [1, 3]: 10576 ng·h/mL and 11340 ng·h/mL
C max [1, 3]: 3959 ng/mL and 5038 ng/mL
MRT INF_obs [1, 3]: 3.41 h and 4.99 h
T1/2 [1, 3]: 3.67 h and 6.20 h
Cmax [1, 4]: 4280 ng/mL
Tmax [1, 4]: 0.25 h
half-life [1, 4]: 5.46 h
AUC(0-inf) [1, 4]: 12000 ng·h/mL
MRT inf [1, 4]: 4.93 h
Cmax [1, 6]: 3840 ng/mL
Tmax [1, 6]: 0.25 h
half-life [1, 6]: 6.52 h
AUC(0-inf) [1, 6]: 13700 ng·h/mL
AUC(0-t) [1, 7]: 13000 ng·h/mL
MRT inf [1, 6]: 6.38 h
Cmax [1, 8]: 858 ng/mL
Tmax [1, 8]: 0.25 h
half-life [1, 8]: 5.81 h
AUC(0-inf) [1, 8]: 750 ng·h/mL
AUC(0-t) [1, 9]: 742 ng·h/mL
MRT inf [1, 8]: 2.3 h
Cmax [1, 10]: 1020 ng/mL
Tmax [1, 10]: 0.25 h
half-life [1, 10]: 4.19 h
AUC(0-inf) [1, 10]: 791 ng·h/mL
AUC(0-t) ([1]; po, p.o. (gavage 20 mg/Kg per Table 3), individual animal, read-out: AUC last): 787 ng·h/mL
MRT inf [1, 10]: 1.98 h
AUC INF_obs [1, 11]: 953 ng·h/mL and 506 ng·h/mL
AUC last [1, 11]: 945 ng·h/mL and 494 ng·h/mL
C max [1, 11]: 966 ng/mL and 588 ng/mL
MRT INF_obs [1, 11]: 2.10 h and 2.83 h
T1/2 [1, 11]: 5.52 h and 7.73 h
IC50 [2]: 3.2 ± 0.6 nM

From patent US12152017B2, “Ketoamide compound and preparation method, pharmaceutical composition, and use thereof” (Shanghai Institute of Materia Medica, Chinese Academy of …, priority 2018, dated 2024)
